Assays:
pigweed = assay: Test A preemergence; type: in vivo, Amaranthus retroflexus; conditions: 0 to 100 scale (0 no effect, 100 complete control)
Outline: (§1)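 Herbicidal response was scored on plants treated pre- or postemergence with surfactant-containing, non-phytotoxic solvent formulations. Preemergence meant a directed spray onto soil (loam–sand) holding sown seed; postemergence plants were at one to two leaves.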

barnyardgrass = assay: Test A postemergence; type: in vivo, Echinochloa crus-galli; conditions: 0 to 100 scale (0 no effect, 100 complete control), approx. 10 d
Outline: as §1

oat, wild = assay: Test C postemergence; type: in vivo, Avena fatua
Outline: (§2)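 Preemergence: seeds sown in loam soil–sand blend and treated with test chemicals formulated in a non-phytotoxic solvent mixture containing a surfactant. Postemergence: plants grown in peat moss/vermiculite-based medium and sprayed with the same formulation at 2 to 18 cm height (1- to 4-leaf stage).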

ducksalad = assay: Test B flooded paddy test; type: in vivo, Heteranthera limosa; conditions: 250 g ai/ha, applied to paddy water at 2-leaf stage, visual rating after 13 to 15 d, scale 0 (no effect) to 100 (complete control)
Outline: (§3)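 Pots were flooded to 3 cm above the soil at treatment, and compounds were applied directly into the paddy water. That depth was held throughout. After 13 to 15 d in a greenhouse, plants were rated visually against untreated controls.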

corn = assay: Test A postemergence; type: in vivo, Zea mays; conditions: 0 to 100 scale (0 no effect, 100 complete control), approx. 10 d
Outline: as §1

wheat (winter wheat) = assay: Test C postemergence; type: in vivo, Triticum aestivum
Outline: as §2

morningglory = assay: Test C postemergence; type: in vivo, Ipomoea coccinea
Outline: as §2

nutsedge, yellow = assay: Test C postemergence; type: in vivo, Cyperus esculentus
Outline: as §2

foxtail, giant = assay: Test A preemergence; type: in vivo, Setaria faberii; conditions: 0 to 100 scale (0 no effect, 100 complete control)
Outline: as §1

sedge, umbrella = assay: Test B flooded paddy test; type: in vivo, Cyperus difformis; conditions: 250 g ai/ha, applied to paddy water at 2-leaf stage, visual rating after 13 to 15 d, scale 0 (no effect) to 100 (complete control)
Outline: as §3

soybean = assay: Test C postemergence; type: in vivo, Glycine max
Outline: as §2

chickweed = assay: Test C postemergence; type: in vivo, Stellaria media
Outline: as §2

ryegrass, Italian = assay: Test C postemergence; type: in vivo, Lolium multiflorum
Outline: as §2

rice = assay: Test B flooded paddy test; type: in vivo, Oryza sativa; conditions: 250 g ai/ha, applied to paddy water at 2-leaf stage, visual rating after 13 to 15 d, scale 0 (no effect) to 100 (complete control)
Outline: as §3

Compound: FC(F)(F)COc1nc(-c2ccc(Cl)cc2)nn1Cc1ccnc(C(F)(F)F)c1 [Compound 31]
- Plant response rating, Pigweed (pigweed; 125 g ai/ha): 100
- Plant response rating, Pigweed (pigweed; 500 g ai/ha, approx. 10 d): 100
- Plant response rating, Barnyardgrass (barnyardgrass; 125 g ai/ha): 50
- Plant response rating, Barnyardgrass (barnyardgrass; 500 g ai/ha): 90
- Plant response rating (scale of 0 to 100 where 0 is no effect and 100 is complete control) (oat, wild; 31 g ai/ha): 30
- Plant response rating (scale of 0 to 100 where 0 is no effect and 100 is complete control) (oat, wild; 62 g ai/ha): 35
- Plant response rating (scale of 0 to 100 where 0 is no effect and 100 is complete control) (oat, wild; 125 g ai/ha): 80
- Plant response rating (scale of 0 to 100 where 0 is no effect and 100 is complete control) (oat, wild; 250 g ai/ha): 80
- Plant response rating, Ducksalad, Flood (ducksalad): 70
- Plant response rating, Corn (corn; 125 g ai/ha): 20
- Plant response rating, Corn (corn; 500 g ai/ha): 30
- Plant response rating (scale of 0 to 100 where 0 is no effect and 100 is complete control) (wheat (winter wheat); 31 g ai/ha): 5
- Plant response rating (scale of 0 to 100 where 0 is no effect and 100 is complete control) (wheat (winter wheat); 62 g ai/ha): 5
- Plant response rating (scale of 0 to 100 where 0 is no effect and 100 is complete control) (wheat (winter wheat); 125 g ai/ha): 10
- Plant response rating (scale of 0 to 100 where 0 is no effect and 100 is complete control) (wheat (winter wheat); 250 g ai/ha): 20
- Plant response rating (scale of 0 to 100 where 0 is no effect and 100 is complete control) (morningglory; 31 g ai/ha): 95
- Plant response rating (scale of 0 to 100 where 0 is no effect and 100 is complete control) (morningglory; 62 g ai/ha): 60
- Plant response rating (scale of 0 to 100 where 0 is no effect and 100 is complete control) (morningglory; 125 g ai/ha): 75
- Plant response rating (scale of 0 to 100 where 0 is no effect and 100 is complete control) (morningglory; 250 g ai/ha): 100
- Plant response rating (scale of 0 to 100 where 0 is no effect and 100 is complete control) (nutsedge, yellow; 31 g ai/ha): 20
- Plant response rating (scale of 0 to 100 where 0 is no effect and 100 is complete control) (nutsedge, yellow; 62 g ai/ha): 30
- Plant response rating (scale of 0 to 100 where 0 is no effect and 100 is complete control) (nutsedge, yellow; 125 g ai/ha): 30
- Plant response rating (scale of 0 to 100 where 0 is no effect and 100 is complete control) (nutsedge, yellow; 250 g ai/ha): 35
- Plant response rating, Foxtail, Giant (foxtail, giant; 125 g ai/ha): 100
- Plant response rating, Foxtail, Giant (foxtail, giant; 500 g ai/ha, approx. 10 d): 100
- Plant response rating, Sedge, Umbrella, Flood (sedge, umbrella): 100
- Plant response rating (scale of 0 to 100 where 0 is no effect and 100 is complete control) (soybean; 31 g ai/ha): 40
- Plant response rating (scale of 0 to 100 where 0 is no effect and 100 is complete control) (soybean; 62 g ai/ha): 65
- Plant response rating (scale of 0 to 100 where 0 is no effect and 100 is complete control) (soybean; 125 g ai/ha): 35
- Plant response rating (scale of 0 to 100 where 0 is no effect and 100 is complete control) (soybean; 250 g ai/ha): 65
- Plant response rating (scale of 0 to 100 where 0 is no effect and 100 is complete control) (chickweed; 31 g ai/ha): 90
- Plant response rating (scale of 0 to 100 where 0 is no effect and 100 is complete control) (chickweed; 62 g ai/ha): 95
- Plant response rating (scale of 0 to 100 where 0 is no effect and 100 is complete control) (chickweed; 125 g ai/ha): 95
- Plant response rating (scale of 0 to 100 where 0 is no effect and 100 is complete control) (chickweed; 250 g ai/ha): 95
- Plant response rating (scale of 0 to 100 where 0 is no effect and 100 is complete control) (ryegrass, Italian; 31 g ai/ha): 20
- Plant response rating (scale of 0 to 100 where 0 is no effect and 100 is complete control) (ryegrass, Italian; 62 g ai/ha): 30
- Plant response rating (scale of 0 to 100 where 0 is no effect and 100 is complete control) (ryegrass, Italian; 125 g ai/ha): 40
- Plant response rating (scale of 0 to 100 where 0 is no effect and 100 is complete control) (ryegrass, Italian; 250 g ai/ha): 65
- Plant response rating, Rice, Flood (rice): 35
